The record followed here is US9908897B2, “Spirocyclic derivatives” (CHRONOS THERAPEUTICS LIMITED, priority 2014, dated 2018).

Test [1] concerns the target human dopamine transporter (DAT) (Homo sapiens (Human), UniProt Q01959). Briefly: Scintillation Proximity Assay (SPA) competition binding, human DAT. The note with it: recombinant hDAT-CHO membranes, [3H]WIN-35,428. An excerpt:
(§1) Measure of Affinity to the Human Transporters DAT, NET and SERT
In the context of the present invention pKi values (corresponding to the antilogarithm of Ki) are used instead of Ki; pKi are only estimated to be accurate to about 0.3 log unit.
(§2) Scintillation Proximity Assay (SPA) for Human DAT, NET and SERT Binding
(§3) Chinese Hamster Ovary (CHO) cells stably expressing either human DAT (hDAT-CHO) or human NET (hNET-CHO) or human SERT (hSERT-CHO) are used for the membrane preparations for radioligand binding assays using Scintillation proximity Assay (SPA) technique. Each cell line is cultured independently in F-12K Nutrient Mixture containing 10% of Fetal Bovine Serum (FBS) supplemented with 450 μg/ml G-418. When cells are at 70-80% of confluence 3 mM Na Butyrate was added to the cell culture medium. After 24 h of incubation, the culture medium was removed and the cells detached with Versene (DAT) or by scraping (NET and SERT). Cell suspension is centrifuged at 41,000 g for 10 minutes at 4° C. The resultant pellets are re-suspended in 15 volumes of Ice-cold buffer (20 mM HEPES, 145 mM NaCl, 5 mM KCl, pH7.3), homogenized using an Ultra Turrax homogeniser and centrifuged as before. The resultant membrane pellets are re-suspended in up to 15 volume of ice-cold buffer, incubated for 20 minutes at 37-C and centrifuged as before at 41,000 g. The final membrane pellets are re-suspended into 5-10 volumes of ice-cold buffer, dispensed into 0.5 ml aliquots and stored at −80° C. until use. Protein concentration for each preparation is determined using Bio-Rad Protein Assay kit.
(§4) The affinity of the compounds of the invention to the human DAT or NET or SERT transporters is assessed by using the [^3H]WIN-35,428 or [^3H]nisoxetine or [^3H]citalopram binding assays in recombinant human DAT, NET and SERT membranes with the SPA technology. The final assay volume is 50 μL in 384 well plates.
(§5) Briefly, 0.5 μL of test compound in neat DMSO or 0.5 μL of DMSO for total binding (TB) or 0.5 μL of indatraline 1 mM (10 μM final concentration) for non specific binding (NSB) are added to the assay plate. 50 μL of the SPA mixture is added to each well, containing: 30 μg/mL or 10 μg/mL or 25 μg/mL DAT, NET, SERT membranes, respectively; 5 nM [^3H]WIN-35,428 or 5 nM [^3H]nisoxetine or 1 nM [^3H]citalopram, for DAT, NET, SERT assay, respectively; 2.5 mg/mL or 1 mg/mL or 4 mg/mL WGA-PVT SPA beads (PerkinElmer RPNQ0001, for DAT, NET, SERT assay, respectively. All components are added to Assay Buffer (20 mM HEPES pH 7.4, 145 mM NaCl, 5 mM KCl, 0.01% Pluronic F-127). 0.02% BSA was used for DAT binding only. Plates are sealed with Topseal A and centrifuged 1 min, 800 rpm. Plates are loaded into a 1450 Microbeta TriLux (Perkin-Elmer) plate reader and the radioactivity counted after at least 4 hrs or overnight incubation at room temperature. Curve fitting and IC50 estimations are performed using a four parameter model in XLfit (IDBS, Guilford, UK) for Microdoft Excel (Microsoft, Redmond, Wash.).

In test [2] the target is human serotonin transporter (SERT) (Homo sapiens (Human), UniProt P31645). As to the kind of experiment: Scintillation Proximity Assay (SPA) competition binding, human SERT. The following applies: recombinant hSERT-CHO membranes, [3H]citalopram.
Excerpt: as §1
(§6) Affinity is expressed in terms of inhibition constant (Ki) of the compounds of the invention for DAT, NET and SERT, and it is typically calculated from the IC50 values obtained in competition experiments using Cheng and Prusoff equation (Cheng and Prusoff, Biochem. Pharmacol. 22:3099, 1973). In the context of the present invention pKi values (corresponding to the antilogarithm of Ki) are used instead of Ki; pKi are only estimated to be accurate to about 0.3 log unit.
as §2, §3, §4, §5

For test [3], the target named is human norepinephrine transporter (NET) (Homo sapiens (Human), UniProt P23975). As to the kind of experiment: Scintillation Proximity Assay (SPA) competition binding, human NET. The note with it: recombinant hNET-CHO membranes, [3H]nisoxetine.
Excerpt: as §1, §6, §2, §3, §4, §5

Chain of human serotonin transporter (SERT) (P31645 whole entry): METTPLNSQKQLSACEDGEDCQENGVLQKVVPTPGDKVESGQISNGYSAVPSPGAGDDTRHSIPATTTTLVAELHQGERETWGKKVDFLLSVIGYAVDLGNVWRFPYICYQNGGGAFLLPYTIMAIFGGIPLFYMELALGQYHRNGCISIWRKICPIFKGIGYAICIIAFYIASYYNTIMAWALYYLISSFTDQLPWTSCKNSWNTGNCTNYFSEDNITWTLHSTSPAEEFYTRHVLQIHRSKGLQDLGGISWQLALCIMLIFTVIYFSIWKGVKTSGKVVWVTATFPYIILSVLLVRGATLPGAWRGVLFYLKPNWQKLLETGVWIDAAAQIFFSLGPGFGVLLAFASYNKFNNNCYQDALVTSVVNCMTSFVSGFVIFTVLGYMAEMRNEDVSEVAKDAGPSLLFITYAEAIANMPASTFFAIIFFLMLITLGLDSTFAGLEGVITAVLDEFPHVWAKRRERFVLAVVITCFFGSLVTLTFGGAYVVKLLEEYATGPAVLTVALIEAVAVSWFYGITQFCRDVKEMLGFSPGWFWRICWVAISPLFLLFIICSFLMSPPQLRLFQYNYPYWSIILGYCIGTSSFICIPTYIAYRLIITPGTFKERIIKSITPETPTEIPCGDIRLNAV
Chain of human norepinephrine transporter (NET) (P23975 whole entry): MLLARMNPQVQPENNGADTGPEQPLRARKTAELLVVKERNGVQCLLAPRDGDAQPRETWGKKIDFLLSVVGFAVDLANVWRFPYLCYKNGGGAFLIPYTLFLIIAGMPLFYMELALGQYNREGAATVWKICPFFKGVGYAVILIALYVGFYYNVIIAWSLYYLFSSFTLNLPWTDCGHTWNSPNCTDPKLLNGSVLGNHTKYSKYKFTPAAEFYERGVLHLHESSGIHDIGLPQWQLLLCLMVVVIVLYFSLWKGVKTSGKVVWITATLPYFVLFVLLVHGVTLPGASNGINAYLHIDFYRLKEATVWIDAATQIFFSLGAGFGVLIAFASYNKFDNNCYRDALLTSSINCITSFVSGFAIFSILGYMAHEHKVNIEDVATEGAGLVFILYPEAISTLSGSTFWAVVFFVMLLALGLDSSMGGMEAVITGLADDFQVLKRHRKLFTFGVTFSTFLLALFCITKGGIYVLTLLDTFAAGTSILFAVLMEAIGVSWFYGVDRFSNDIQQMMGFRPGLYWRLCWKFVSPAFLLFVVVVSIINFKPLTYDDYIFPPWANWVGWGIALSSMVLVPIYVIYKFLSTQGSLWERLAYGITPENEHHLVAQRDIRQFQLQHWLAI
Chain of human dopamine transporter (DAT) (Q01959 whole entry): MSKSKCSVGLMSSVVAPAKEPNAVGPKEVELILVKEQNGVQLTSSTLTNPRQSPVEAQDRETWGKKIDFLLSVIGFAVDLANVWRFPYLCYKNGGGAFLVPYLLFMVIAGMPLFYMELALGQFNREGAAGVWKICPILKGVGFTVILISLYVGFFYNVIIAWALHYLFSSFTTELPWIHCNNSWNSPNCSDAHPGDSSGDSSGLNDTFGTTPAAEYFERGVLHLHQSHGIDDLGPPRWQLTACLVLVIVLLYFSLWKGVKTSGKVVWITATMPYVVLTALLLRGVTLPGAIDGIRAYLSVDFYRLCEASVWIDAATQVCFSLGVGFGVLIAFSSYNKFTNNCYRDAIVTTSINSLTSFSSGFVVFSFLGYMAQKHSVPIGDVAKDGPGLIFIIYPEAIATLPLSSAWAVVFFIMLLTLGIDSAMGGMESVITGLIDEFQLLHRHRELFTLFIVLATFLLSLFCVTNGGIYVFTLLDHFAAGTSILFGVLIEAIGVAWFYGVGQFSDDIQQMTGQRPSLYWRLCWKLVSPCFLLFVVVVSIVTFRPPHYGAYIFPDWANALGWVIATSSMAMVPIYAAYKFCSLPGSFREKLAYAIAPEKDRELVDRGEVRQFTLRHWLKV

On to `Cl.Fc1cccc(Oc2cc(C(F)(F)F)nc(N3CCC4(CC3)CNCCO4)n2)c1` [Example 56, 9-[4-(3-fluorophenoxy)-6-(trifluoromethyl)pyrimidin-2-yl]-1-oxa-4,9-diazaspiro[5.5]undecane hydrochloride], for which the “pIC50 DAT” value in test [1] is given as 8.42. Besides, in test [2], the “pIC50 SERT” value worked out at 5.77. Moreover, in test [3], the “pIC50 NET” value is recorded as 6.37.

In the case of `Fc1cccc(Oc2cc(C(F)(F)F)nc(N3CCC4(CC3)CNCCN4)n2)c1` [Example 75, 9-[4-(3-fluorophenoxy)-6-(trifluoromethyl)pyrimidin-2-yl]-1,4,9-triazaspiro[5.5]undecane], the “pIC50 DAT” value in test [1] is 8.88. For the same molecule, the “pIC50 SERT” value in test [2] is on record as 5.18. Further, in test [3], the “pIC50 NET” value stood at 6.54.

Take `Fc1cccc(Oc2cc(F)c(F)cc2N2CCC3(CNCCC34OCCO4)C2)c1` (stereo not drawn) [Example 85, 8-[4,5-difluoro-2-(3-fluorophenoxy)phenyl]-1,4-dioxa-8,12-diazadispiro[4.0.4^6.4^5]tetradecane]: in test [1], the “pIC50 DAT” value turned out to be 6.62. Moreover, the “pIC50 SERT” value in test [2] came to 6.35. Also, the “pIC50 NET” value in test [3] stood at 5.81.

For `Cc1cc(Oc2cccc(OC(F)(F)F)c2)nc(N2CCC3(CC2)CNCCO3)n1.Cl` [Example 47, 9-{4-methyl-6-[3-(trifluoromethoxy)phenoxy]pyrimidin-2-yl}-1-oxa-4,9-diazaspiro[5.5]undecane hydrochloride], in test [1], the “pIC50 DAT” value is recorded as 6.59. Also, in test [2], the “pIC50 SERT” value turned out to be 5.27. Also, in test [3], the “pIC50 NET” value is given as 5.51.

Regarding `O=C1CNCC2(CCN(c3nc(Oc4cccc(F)c4)cc(C(F)(F)F)n3)CC2)N1` [Example 73, 9-[4-(3-fluorophenoxy)-6-(trifluoromethyl)pyrimidin-2-yl]-1,4,9-triazaspiro[5.5]undecan-2-one], the “pIC50 DAT” value in test [1] is recorded as 6.32. Further, the IC50 in test [2] is greater than 100 µM. In addition, the “pIC50 NET” value in test [3] is on record as 4.82.

In the case of `Cl.N#Cc1c(C(F)(F)F)cc(Oc2cccc(F)c2)nc1N1CCC2(CC1)CNCCO2` [Example 40, 6-(3-fluorophenoxy)-2-{1-oxa-4,9-diazaspiro[5.5]undecan-9-yl}-4-(trifluoromethyl)pyridine-3-carbonitrile hydrochloride], the “pIC50 DAT” value in test [1] is given as 7.25. Moreover, the “pIC50 SERT” value in test [2] stood at 5.35. Further, the “pIC50 NET” value in test [3] amounted to 6.29.

`Cc1cc(Oc2ccccc2C)nc(N2CCC3(CC2)CNCCO3)n1.Cl` [Example 51, 9-[4-methyl-6-(2-methylphenoxy)pyrimidin-2-yl]-1-oxa-4,9-diazaspiro[5.5]undecane hydrochloride]: in test [1], the “pIC50 DAT” value was 7.33. The “pIC50 SERT” value in test [2] is 5.21. Also, the “pIC50 NET” value in test [3] amounted to 5.78.

In the case of `Fc1cccc(Oc2cc(C(F)(F)F)nc(N3CC4(CNCCO4)C3)n2)c1` [Example 102, 2-[4-(3-fluorophenoxy)-6-(trifluoromethyl)pyrimidin-2-yl]-5-oxa-2,8-diazaspiro[3.5]nonane], the “pIC50 DAT” value in test [1] was found to be 8.00. The “pIC50 SERT” value in test [2] is reported as 4.00. The “pIC50 NET” value in test [3] is listed as 6.22.

On to `Cl.Fc1cccc(Oc2cc(C(F)(F)F)nc(N3CCOC4(CCNCC4)C3)n2)c1` [Example 67, 4-[4-(3-fluorophenoxy)-6-(trifluoromethyl)pyrimidin-2-yl]-1-oxa-4,9-diazaspiro[5.5]undecane hydrochloride], for which the “pIC50 DAT” value in test [1] is 7.80. For the same molecule, the “pIC50 SERT” value in test [2] worked out at 5.32. In test [3], the “pIC50 NET” value is reported as 6.02.

Take `Cc1cc(Oc2cccnc2)nc(N2CCC3(CC2)CNCCO3)n1.Cl` [Example 53, 9-[4-methyl-6-(pyridin-3-yloxy)pyrimidin-2-yl]-1-oxa-4,9-diazaspiro[5.5]undecane hydrochloride]: in test [1], the “pIC50 DAT” value was determined as 6.63. Also, the “pIC50 SERT” value in test [2] is 4.56. For the same molecule, in test [3], the “pIC50 NET” value turned out to be 5.21.

On to `N#Cc1ccc(Oc2ccccc2)cc1N1CCC2(CC1)CNCCO2` [Example 27, 2-{1-oxa-4,9-diazaspiro[5.5]undecan-9-yl}-4-phenoxybenzonitrile], for which the “pIC50 DAT” value in test [1] was determined as 7.54. Moreover, the “pIC50 SERT” value in test [2] was 5.15. Also, in test [3], the “pIC50 NET” value is 5.69.
